In the series the test system is Caco-2 bidirectional permeability, LC-MS/MS efflux ratio. Nature of the series: Enhancers of SMN2 Splice Variant Expression: Efflux Ratio Profiling. As to conditions: stronger effect = lower value. An excerpt:
Spinal muscular atrophy (SMA) is caused by insufficient levels of the survival motor neuron protein SMN. The SMN locus on chromosome 5q13 contains two inverted copies of SMN called SMN1 and SMN2 which are 99% identical at the amino acid level. SMN1 is a fully functional protein and SMN2 skips exon 7 90% of the time. Skipping of exon 7 produces non-functional protein product. 10% of the SMN2 protein includes exon 7 and is fully functional. In the SMA disease state, mutations in the SMN1 locus are the cause of the disease state. Because only 10% of SMN2 is of the fully functional form, it is not sufficient to overcome the deficiency produced by the loss of the SMN1 product. A therapy that either increase the amount of SMN2 product made or to increase the inclusion of exon 7 has been proposed for the treatment of SMA. After screening and medicinal chemistry efforts a probe was identified and is further characterized in this in vitro ADME assay. This bioassays provides profiling data on Caco-2 cell permeability of leads compounds developed for the HPGD project. […]
Prepare 1M HEPES: add 23.83g HEPES to 100ml of 0.85% NaCl Prepare HBSS+ buffer: add 12.8ml of 1M HEPES in 0.85% NaCl to 500ml HBSS buffer. […] The T0, LY and T90, LY plates are read by FlexStation 3 at excitation of 485 nm and emission of 535 nm to determine LY permeability. […]

A word on the efflux ratio: it is the permeability from basolateral to apical divided by that in the opposite direction, in the common usage. Turning to `O=C(O)C1CCN(c2nc(-c3ccc(Br)cc3)cs2)CC1`, the efflux ratio was 0.4.

Source of the values: PubChem BioAssay AID504779 (National Center for Advancing Translational Sciences (NCATS), 2011).
